These molecules were tested against T1, full-length human PKCι (Homo sapiens, UniProt P41743) (assay: PKCι IC50 IMAP fluorescence polarisation assay, full-length enzyme). Conditions: full length PKCi at 15 μM ATP; read-out: IC50 in IMAP assay against full length PKCi.
T1 construct: Recombinant, full-length human PKCι expressed in Sf21 insect cells is also commercially available; purchased; host or cells: Sf21 insect cells
T1 sequence (P41743 1-596): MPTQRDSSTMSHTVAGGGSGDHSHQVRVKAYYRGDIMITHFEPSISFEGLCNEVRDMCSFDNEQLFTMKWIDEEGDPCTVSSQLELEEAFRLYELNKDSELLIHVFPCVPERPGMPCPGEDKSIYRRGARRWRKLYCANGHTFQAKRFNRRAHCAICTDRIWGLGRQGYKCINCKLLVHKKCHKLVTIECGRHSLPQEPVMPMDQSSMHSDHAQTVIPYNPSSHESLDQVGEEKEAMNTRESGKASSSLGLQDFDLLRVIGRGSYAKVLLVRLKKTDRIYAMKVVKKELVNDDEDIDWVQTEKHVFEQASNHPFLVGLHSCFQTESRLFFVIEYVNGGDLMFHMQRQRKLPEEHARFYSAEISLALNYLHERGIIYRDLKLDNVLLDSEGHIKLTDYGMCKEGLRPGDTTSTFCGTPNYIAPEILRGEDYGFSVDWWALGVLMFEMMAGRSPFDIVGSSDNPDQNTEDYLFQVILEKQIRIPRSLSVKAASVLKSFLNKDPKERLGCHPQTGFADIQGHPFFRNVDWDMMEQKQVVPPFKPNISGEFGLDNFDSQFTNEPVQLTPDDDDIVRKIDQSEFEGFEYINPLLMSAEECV
Format: biochemical

| SMILES | IC50 |
| --- | --- |
| CC(C)(C)/C=C/c1csc2c(NC[C@@H](N)Cc3ccccc3)nc(-c3ccncc3)nc12 [compound 406, (S)-N*1*-[7-((E)-3,3-Dimethyl-but-1-enyl)-2-pyridin-4-yl-thieno[3,2-d]pyrimidin-4-yl]-3-phenyl-propane-1,2-diamine] | 1000 to 10000 nM |
| c1csc(-c2ccc(Nc3cc(-c4nc(N[C@@H]5CCNC5)c5sccc5n4)ccn3)cc2)c1 [compound 616, (R)-Pyrrolidin-3-yl-{2-[2-(4-thiophen-2-yl-phenylamino)-pyridin-4-yl]-thieno[3,2-d]pyrimidin-4-yl}-amine] | 100 to 1000 nM |
| c1cc(-c2nc(N[C@@H]3CCNC3)c3sccc3n2)cc(Nc2ccc(N3CCOCC3)cn2)n1 [compound 602, {2-[2-(5-Morpholin-4-yl-pyridin-2-ylamino)-pyridin-4-yl]-thieno[3,2-d]pyrimidin-4-yl}-(R)-pyrrolidin-3-yl-amine] | 100 to 1000 nM |
| Cc1ccccc1-c1csc2c(NC[C@@H](N)Cc3ccccc3)nc(-c3ccncc3F)nc12 [compound 433, (S)-N*1*-[2-(3-Fluoro-pyridin-4-yl)-7-o-tolyl-thieno[3,2-d]pyrimidin-4-yl]-3-phenyl-propane-1,2-diamine] | 1000 to 10000 nM |
| CCOc1ccc(Cl)cc1-c1c(C)sc2c(NC[C@@H](N)Cc3ccccc3)nc(-c3ccncc3)nc12 [compound 463, (S)-N*1*-[7-(5-Chloro-2-ethoxy-phenyl)-6-methyl-2-pyridin-4-yl-thieno[3,2-d]pyrimidin-4-yl]-3-phenyl-propane-1,2-diamine] | 10000 to 40000 nM |
| N[C@H](CNc1nc(-c2ccncc2)nc2c(C3CC3)csc12)Cc1ccccc1 [compound 413, (S)-N*1*-(7-Cyclopropyl-2-pyridin-4-yl-thieno[3,2-d]pyrimidin-4-yl)-3-phenyl-propane-1,2-diamine] | < 100 nM |
| O=C(Nc1cc(-c2nc(N[C@@H]3CCNC3)c3sccc3n2)ccn1)c1ccc(F)cc1 [compound 618, 4-Fluoro-N-{4-[4-((R)-pyrrolidin-3-ylamino)-thieno[3,2-d]pyrimidin-2-yl]-pyridin-2-yl}-benzamide] | 100 to 1000 nM |
| Cc1c(Br)sc2c(NC[C@@H](N)Cc3ccccc3)nc(-c3ccncc3)nc12 [compound 337, (S)-N*1*-(6-Bromo-7-methyl-2-pyridin-4-yl-thieno[3,2-d]pyrimidin-4-yl)-3-phenyl-propane-1,2-diamine] | 100 to 1000 nM |
| N[C@H](CNc1nc(-c2ccncc2)nc2c(C#CCO)csc12)Cc1ccccc1 [compound 515, 3-[4-((S)-2-Amino-3-phenyl-propylamino)-2-pyridin-4-yl-thieno[3,2-d]pyrimidin-7-yl]-prop-2-yn-1-ol] | < 100 nM |
| CC#Cc1csc2c(NC[C@@H](N)Cc3ccccc3)nc(-c3ccncc3)nc12 [compound 542, (S)-3-Phenyl-N*1*-(7-prop-1-ynyl-2-pyridin-4-yl-thieno[3,2-d]pyrimidin-4-yl)-propane-1,2-diamine] | < 100 nM |
| O=S(=O)(Nc1cc(-c2nc(N[C@@H]3CCNC3)c3sccc3n2)ccn1)C1CC1 [compound 622, Cyclopropanesulfonic acid {4-[4-((R)-pyrrolidin-3-ylamino)-thieno[3,2-d]pyrimidin-2-yl]-pyridin-2-yl}-amide] | 10000 to 40000 nM |
| O=C(Nc1cc(-c2nc(N[C@H]3CNC[C@@H]3O)c3sccc3n2)ccn1)c1cccs1 [compound 627, Thiophene-2-carboxylic acid {4-[4-((3S,4S)-4-hydroxy-pyrrolidin-3-ylamino)-thieno[3,2-d]pyrimidin-2-yl]-pyridin 2-yl}-amide] | 1000 to 10000 nM |
| N[C@H](CNc1nc(-c2ccncc2)nc2c(-c3cn[nH]n3)csc12)Cc1ccccc1 [compound 547, (S)-3-Phenyl-N*1*-[2-pyridin-4-yl-7-(3H-[1,2,3]triazol-4-yl)-thieno[3,2-d]pyrimidin-4-yl]-propane-1,2-diamine] | < 100 nM |
| COc1ccc(C(C)(C)C)cc1-c1c(C)sc2c(NC[C@@H](N)Cc3ccccc3)nc(-c3ccncc3)nc12 [compound 461, (S)-N*1*-[7-(5-tert-Butyl-2-methoxy-phenyl)-6-methyl-2-pyridin-4-yl-thieno[3,2-d]pyrimidin-4-yl]-3-phenyl-propane-1,2-diamine] | 10000 to 40000 nM |

Next, values leading:

| IC50 | SMILES |
| --- | --- |
| < 100 nM | C=Cc1csc2c(NC[C@@H](N)Cc3ccccc3)nc(-c3ccncc3)nc12 [compound 408, (S)-3-Phenyl-N*1*-(2-pyridin-4-yl-7-vinyl-thieno[3,2-d]pyrimidin-4-yl)-propane-1,2-diamine] |
| < 100 nM | CC(O)CC#Cc1csc2c(NC[C@@H](N)Cc3ccccc3)nc(-c3ccncc3)nc12 (stereo partly drawn) [compound 536, 5-[4-((S)-2-Amino-3-phenyl-propylamino)-2-pyridin-4-yl-thieno[3,2-d]pyrimidin-7-yl]-pent-4-yn-2-ol] |
| 10000 to 40000 nM | CC(C)(C)c1sc2c(NC[C@@H](N)Cc3ccccc3)nc(-c3ccncc3)nc2c1-c1ccc(F)nc1 [compound 443, (S)-N*1*-[6-tert-Butyl-7-(6-fluoro-pyridin-3-yl)-2-pyridin-4-yl-thieno[3,2-d]pyrimidin-4-yl]-3-phenyl-propane-1,2-diamine] |
| 1000 to 10000 nM | Cn1ccc(-c2csc3c(NC[C@@H](N)Cc4ccccc4)nc(-c4ccncc4)nc23)n1 [compound 415, (S)-N*1*-[7-(1-Methyl-1H-pyrazol-3-yl)-2-pyridin-4-yl-thieno[3,2-d]pyrimidin-4-yl]-3-phenyl-propane-1,2-diamine] |
| 1000 to 10000 nM | Cc1ccc(-c2c(C(C)(C)C)sc3c(NC[C@@H](N)Cc4ccccc4)nc(-c4ccncc4)nc23)s1 [compound 447, (S)-N*1*-[6-tert-Butyl-7-(5-methyl-thiophen-2-yl)-2-pyridin-4-yl-thieno[3,2-d]pyrimidin-4-yl]-3-phenyl-propane-1,2-diamine] |
| 1000 to 10000 nM | Cc1sc2c(NCCN)nc(-c3ccncc3)nc2c1C [compound 309, N*1*-(6,7-Dimethyl-2-pyridin-4-yl-thieno[3,2-d]pyrimidin-4-yl)-ethane-1,2-diamine] |
| 1000 to 10000 nM | Brc1csc2c(N[C@H]3CCNC3)nc(-c3ccncc3)nc12 [compound 344, (7-Bromo-2-pyridin-4-yl-thieno[3,2-d]pyrimidin-4-yl)-(S)-pyrrolidin-3-yl-amine] |
| 100 to 1000 nM | O=C(Nc1cc(-c2nc(N[C@@H]3CCNC3)c3sccc3n2)ccn1)C1CC1 [compound 599, Cyclopropanecarboxylic acid {4-[4-((R)-pyrrolidin-3-ylamino)-thieno[3,2-d]pyrimidin-2-yl]-pyridin-2-yl}-amide] |
| 100 to 1000 nM | N#Cc1ccc(Nc2cc(-c3nc(N[C@@H]4CCNC4)c4sccc4n3)ccn2)nc1 [compound 604, 6-{4-[4-((R)-Pyrrolidin-3-ylamino)-thieno[3,2-d]pyrimidin-2-yl]-pyridin-2-ylamino}-nicotinonitrile] |
| 1000 to 10000 nM | O=C(Nc1cc(-c2nc(N[C@@H]3CCNC3)c3sccc3n2)ccn1)c1ccco1 [compound 574, Furan-2-carboxylic acid {4-[4-((R)-pyrrolidin-3-ylamino)-thieno[3,2-d]pyrimidin-2-yl]-pyridin-2-yl}-amide] |

Same assay, conditions: full length PKCi at 15 μM ATP; read-out: IC50 in IMAP assay against full length PKCi (Activity)

| IC50 | SMILES |
| --- | --- |
| 100 to 1000 nM | N[C@H](CNc1nc(-c2ccncc2)nc2sc3c(c12)CCCC3)Cc1ccccc1F [compound 51, (S)-3-(2-Fluoro-phenyl)-N*1*-(2-pyridin-4-yl-5,6,7,8-tetrahydro-benzo[4,5]thieno[2,3-d]pyrimidin-4-yl)-propane-1,2-diamine] |
| 10000 to 40000 nM | NCCNc1nc(-c2ccncc2)nc2sc3c(c12)CCN(C(=O)C1CC1)C3 [compound 108, [4-(2-Amino-ethylamino)-2-pyridin-4-yl-5,8-dihydro-6H-pyrido[4′,3′:4,5]thieno[2,3-d]pyrimidin-7-yl]-cyclopropyl-methanone] |
| 10000 to 40000 nM | CC(C)CN1CCc2c(sc3nc(-c4ccncc4)nc(NCCN)c23)C1 [compound 114, N*1*-(7-Isobutyl-2-pyridin-4-yl-5,6,7,8-tetrahydro-pyrido[4′,3′:4,5]thieno[2,3-d]pyrimidin-4-yl)-ethane-1,2-diamine] |
| 1000 to 10000 nM | N[C@H](CNc1nc(-c2ccncc2)nc2sc3c(c12)CCCC3)Cc1ccc(O)cc1 [compound 55, 4-[(S)-2-Amino-3-(2-pyridin-4-yl-5,6,7,8-tetrahydro-benzo[4,5]thieno[2,3-d]pyrimidin-4-ylamino)-propyl]-phenol] |
| 10000 to 40000 nM | NCCNc1nc(-c2ccncc2)nc2sc3c(c12)CCN(C(=O)C1CCC1)C3 [compound 109, [4-(2-Amino-ethylamino)-2-pyridin-4-yl-5,8-dihydro-6H-pyrido[4′,3′:4,5]thieno[2,3-d]pyrimidin-7-yl]-cyclobutyl-methanone] |
| 100 to 1000 nM | Cc1ccccc1C[C@H](N)CNc1nc(-c2ccncc2)nc2sc3c(c12)CCCC3 [compound 53, (S)-N*1*-(2-Pyridin-4-yl-5,6,7,8-tetrahydro-benzo[4,5]thieno[2,3-d]pyrimidin-4-yl)-3-o-tolyl-propane-1,2-diamine] |
| 100 to 1000 nM | N[C@H](CNc1nc(-c2ccncc2)nc2sc3c(c12)CCCC3)Cc1cscn1 [compound 59, (S)-N*1*-(2-Pyridin-4-yl-5,6,7,8-tetrahydro-benzo[4,5]thieno[2,3-d]pyrimidin-4-yl)-3-thiazol-4-yl-propane-1,2-diamine] |
